The text below walks through data of patent US20240101563A1, “NOVEL COMPOUNDS” (AC Immune SA, priority 2022, published 2024).

Where a name gives a salt, the structure may show the parent alone.

The subject of the first experiment is NLRP3 inflammasome pathway. Kind of experiment: NLRP3 inflammasome pathway activation assay, MSU stimulation, IL-1β HTRF. The experiment is classed as cell-based. The conditions noted are these: Homo sapiens, 3 h, Table 7; PMA-differentiated, LPS-primed cells; MSU 200 μg/mL for 3 h; IL-1β release; read-out: IC50 Human monocyte-like cells MSU. On the procedure: The following assays were used to determine the inhibitory activity of test compounds on the NLRP3 inflammasome pathway using common stimuli Nigericin (Invivogen) or monosodium urate crystals (MSU) (Invivogen).
Human monocyte-like cells were cultured in RPMI-1640 Glutamax medium supplemented with 10% heat inactivated FBS (Fetal Bovine Serum) and 50 U/mL penicillin-streptomycin (Life Technologies).
Human monocyte-like cells were seeded at 25000 per well in a 384-well plate and were differentiated overnight into macrophages with 10 ng/mL PMA (Phorbol Myristate Acetate). The following day, medium containing 10 ng/mL LPS (Lipopolysaccharide) was added. After 3 hours of LPS priming, concentrations of test compound in the range from […] were added 30 min prior to NLRP3 inflammasome pathway stimulation with Nigericin 3.75 μM or MSU 200 μg/mL for 3 h.
For IL-1p quantification, supernatants were analyzed using HTRF kit according to the manufacturer's instructions (Cisbio 62HIL1BPEH). Briefly, in a 384-well ProxiPlate™ microplate, 8 μl of sample was mixed, with 5 μl of Anti-IL1β Cryptate antibody (40×) and Anti-IL1β XL antibody (40×). Then, incubated overnight at RT. Reading was done using an EnVision Reader (PerkinElmer).
IC50 (concentration corresponding to 50% inhibition) were determined using GraphPad Prism 9.
(In general: Time-resolved FRET reads energy transfer from a long-lived donor to a nearby acceptor.)
Take `COc1ccc2c(n1)nc(-c1ccc(C(F)(F)F)cc1O)n2C(C)C` [Example 35, 2-(1-isopropyl-5-methoxy-1H-imidazo[4,5-b]pyridin-2-yl)-5-(trifluoromethyl)phenol]: the IC50 (as a rule, the concentration needed to halve the response being measured) is 100 to 1000 nM. As for `Cc1cc(Cl)cc(O)c1-c1nc2nc(OCC(F)(F)F)ccc2n1C` [Example 38, 5-chloro-3-methyl-2-(1-methyl-5-(2,2,2-trifluoroethoxy)-1H-imidazo[45-b]pyridin-2-yl)phenol], the IC50 lay in the range of 100 to 1000 nM. Consider `CN1CCC[C@@H](Nc2ccc3cn(-c4ccc(C(F)(F)F)cc4O)nc3n2)C1` [Example 40, (R)-2-(6-((1-methylpiperidin-3-yl)amino)-2H-pyrazolo[3,4-b]pyridin-2-yl)-5-(trifluoromethyl)phenol formate], for which the IC50 was below 100 nM. For `CNc1ccc2cn(-c3ccc(C(F)(F)F)cc3O)nc2n1` [Example 41, 2-[6-(methylamino)pyrazolo[3,4-b]pyridin-2-yl]-5-(trifluoromethyl)phenol], the IC50 was 100 to 1000 nM. Turning to `COc1ccc2cn(-c3ccc(C(F)(F)F)cc3O)nc2n1` [Example 42], the 50% inhibitory concentration (IC50) lay in the range of 100 to 1000 nM. Turning to `CN1CCC[C@@H](Nc2ccc3cn(-c4ccc(Cl)cc4O)nc3n2)C1` [Example 43, (R)-5-chloro-2-(6-((1-methylpiperidin-3-yl)amino)-2H-pyrazolo[3,4-b]pyridin-2-yl)phenol], the IC50 was below 100 nM. Turning to `Oc1cc(C(F)(F)F)ccc1-n1cc2ccc(OC(F)(F)F)nc2n1` [Example 45, 2-[6-(trifluoromethoxy)pyrazolo[3,4-b]pyridin-2-yl]-5-(trifluoromethyl)phenol], the IC50 lay in the range of 100 to 1000 nM. `Cc1cc(C(F)(F)F)cc(O)c1-c1nc2nc(N[C@@H]3CCN(C)C3)c(F)cc2n1C` [Example 46, (R)-2-(6-fluoro-1-methyl-5-((1-methylpyrrolidin-3-yl)amino)-1H-imidazo[4,5-b]pyridin-2-yl)-3-methyl-5-(trifluoromethyl)phenol]: the 50% inhibitory concentration (IC50) is below 100 nM. For the compound `Cc1cc(Cl)cc(O)c1-c1nc2nc(N[C@@H]3CCN(C)C3)c(F)cc2n1C` [Example 47, (R)-5-chloro-2-(6-fluoro-1-methyl-5-((1-methylpyrrolidin-3-yl)amino)-1H-imidazo[4,5-b]pyridin-2-yl)-3-methylphenol formate Salt], the IC50 is below 100 nM. Take `OCCNc1ccc2cn(-c3ccc(C(F)(F)F)cc3O)nc2n1` [Example 48, 2-(6-((2-hydroxyethyl)amino)-2H-pyrazolo[3,4-b]pyridin-2-yl)-5-(trifluoromethyl)phenol]: the IC50 was 100 to 1000 nM.

Regarding `Cn1c(-c2ccc(Cl)cc2O)nc2nc(C(F)(F)F)ccc21` [Example 49, 5-chloro-2-(1-methyl-5-(trifluoromethyl)-1H-imidazo[4,5-b]pyridin-2-yl)phenol], the IC50 lay in the range of 100 to 1000 nM.

Turning to `COc1nc2nc(-c3ccc(C(F)(F)F)cc3O)n(C)c2cc1CO` [Example 51, 2-(6-(hydroxymethyl)-5-methoxy-1-methyl-1H-imidazo[4,5-b]pyridin-2-yl)-5-(trifluoromethyl)phenol], the IC50 was below 100 nM. In the case of `COc1nc2nc(-c3c(C)cc(C(F)(F)F)cc3O)n(C)c2cc1CO` [Example 52, 2-(6-(hydroxymethyl)-5-methoxy-1-methyl-1H-imidazo[4,5-b]pyridin-2-yl)-3-methyl-5-(trifluoromethyl)phenol], the half-inhibitory concentration (IC50) was below 100 nM.

`Cn1c(-c2ccc(C(F)(F)F)cc2O)nc2nc(NCC3(O)COC3)ccc21` [Example 54, 3-(((2-(2-hydroxy-4-(trifluoromethyl)phenyl)-1-methyl-1H-imidazo[4,5-b]pyridin-5-yl)amino)methyl)oxetan-3-ol]: the half-maximal inhibitory concentration (IC50) lay within 100 to 1000 nM.

Turning to `COc1cnc2c(n1)nc(-c1c(C)cc(C(F)(F)F)cc1O)n2C` [Example 56, 2-(5-methoxy-1-methyl-1H-imidazo[4,5-b]pyrazin-2-yl)-3-methyl-5-(trifluoromethyl)phenol], the IC50 was below 100 nM. Consider `COc1nc2nc(-c3c(C)cc(C(F)(F)F)cc3O)n(C)c2cc1C(C)(C)O` [Example 57, 2-[6-(1-hydroxy-1-methyl-ethyl)-5-methoxy-1-methyl-imidazo[4,5-b]pyridin-2-yl]-3-methyl-5-(trifluoromethyl)phenol], for which the IC50 is 100 to 1000 nM. Same read-out and setting: to `Cc1cc(Cl)cc(O)c1-c1nc2nc(O[C@@H]3CCN(C)C3)cnc2n1C` [Example 58, (R)-5-chloro-3-methyl-2-(1-methyl-5-((1-methylpyrrolidin-3-yl)oxy)-1H-imidazo[4,5-b]pyrazin-2-yl)phenol formate Salt] belongs below 100 nM; to `COc1cnc2c(n1)nc(-c1c(C)cc(Cl)cc1O)n2C` [Example 59, 5-chloro-2-(5-methoxy-1-methyl-imidazo[4,5-b]pyrazin-2-yl)-3-methyl-phenol formate Salt], below 100 nM. For the compound `Cc1cc(C(F)(F)F)cc(O)c1-c1nc2nc(N(C)[C@@H]3CCN(C)C3)cnc2n1C` [Example 60, (R)-3-methyl-2-(1-methyl-5-(methyl(1-methylpyrrolidin-3-Yl)amino)-1H-imidazo[4,5-b]pyrazin-2-yl)-5-(trifluoromethyl)phenol formate Salt], the IC50 was below 100 nM. For the compound `Cc1cc(C(F)(F)F)cc(O)c1-c1nc2nc(N3CCOCC3)cnc2n1C` [Example 61, 3-methyl-2-(1-methyl-5-morpholino-1H-imidazo[4,5-b]pyrazin-2-yl)-5-(trifluoromethyl)phenol], the IC50 is below 100 nM. As to `Cc1cc(Cl)cc(O)c1-c1nc2nc(NC3CN(C)CC3(F)F)ccc2n1C` (stereo not shown) [Example 62, 5-chloro-2-(5-((4,4-difluoro-1-methylpyrrolidin-3-yl)amino)-1-methyl-1H-imidazo[4,5-b]pyridin-2-yl)-3-methylphenol HCl Salt], the IC50 lay within 100 to 1000 nM. Regarding `Cc1cc(C(F)(F)F)cc(O)c1-c1nc2nc(N3CCC(O)CC3)cnc2n1C` [Example 63, 1-(2-(2-hydroxy-6-methyl-4-(trifluoromethyl)phenyl)-1-methyl-1H-imidazo[4,5-b]pyrazin-5-yl)piperidin-4-ol], the IC50 was below 100 nM. Consider `Cc1cc(Cl)cc(O)c1-c1nc2nc(N3CCOCC3)c(F)cc2n1C` [Example 64, 5-chloro-2-(6-fluoro-1-methyl-5-morpholino-1H-imidazo[4,5-b]pyridin-2-yl)-3-methylphenol], for which the 50% inhibitory concentration (IC50) was 100 to 1000 nM.

For `COc1nc2nc(-c3c(C)cc(C(F)(F)F)cc3O)n(C)c2nc1CO` [Example 65, 2-(6-(hydroxymethyl)-5-methoxy-1-methyl-1H-imidazo[4,5-b]pyrazin-2-yl)-3-methyl-5-(trifluoromethyl)phenol], the IC50 is below 100 nM.

For the compound `Cc1cc(Cl)cc(O)c1-c1nc2nc(N3CCOCC3)cnc2n1C` [Example 66, 5-chloro-3-methyl-2-(1-methyl-5-morpholino-imidazo[4,5-b]pyrazin-2-yl)phenol], the IC50 is below 100 nM.

The same experiment, now with this note: Homo sapiens, 3 h, read-out: IC50 Human monocyte-like cells MSU.
As for `Cc1cc(Cl)cc(O)c1-c1nc2nc(OC3CC(F)(F)C3)ccc2n1C` [Example 39, 5-chloro-2-(5-(3,3-difluorocyclobutoxy)-1-methyl-1H-imidazo[4,5-b]pyridin-2-yl)-3-methylphenol], the IC50 was 100 to 1000 nM.

For `Oc1cc(C(F)(F)F)ccc1-n1cc2ccc(OC(F)F)nc2n1` [Example 44, 2-[6-(difluoromethoxy)pyrazolo[3,4-b]pyridin-2-yl]-5-(trifluoromethyl)phenol], the IC50 was in the range of 100 to 1000 nM.

The experiment is the same for the next values; noted with them: Table 7; PMA-differentiated, LPS-primed cells; MSU 200 μg/mL for 3 h; IL-1β release; read-out: IC50 Human monocyte-like cells MSU.
Consider `Cc1cc(C(F)(F)F)cc(O)c1-c1nc2nc(NC3CCCC3O)ccc2n1C` (stereo not shown) [Example 36], for which the IC50 was 100 to 1000 nM.
